The values below come from a compilation of properties of binary mixtures (doi:10.1016/j.molliq.2022.120983).

The viscosity is the resistance of a fluid to flow. Read a low viscosity as a thin fluid.

A short description of this data set: xn = mol fraction of the nth substance listed. The following applies: 101.3 kPa.

For `C[C@H](N)C(=O)[O-].C[N+](C)(C)CCO` + O, the viscosity reads like this: (298.1 K, x1 = 0.0588) 5 mPa·s; (298.1 K, x1 = 0.1232) 9.1 mPa·s; (313 K, x1 = 0.0588) 3.18 mPa·s; (313 K, x1 = 0.2726) 18.2 mPa·s; (333 K, x1 = 0.1232) 3.64 mPa·s; (333 K, x1 = 0.2726) 10.2 mPa·s.
Regarding `C[N+](C)(C)CCO.NCC(=O)[O-]` + O, the viscosity is, setting by setting: (298.1 K, x1 = 0.0631) 4.09 mPa·s; (298.1 K, x1 = 0.1317) 10 mPa·s; (298.1 K, x1 = 0.2879) 20.9 mPa·s; (313 K, x1 = 0.0631) 2.73 mPa·s; (313 K, x1 = 0.1317) 6.4 mPa·s; (313 K, x1 = 0.2879) 12.3 mPa·s. The compound further came in with a viscosity (333 K, x1 = 0.0631) of 1.82 mPa·s; a viscosity (333 K, x1 = 0.1317) of 3.64 mPa·s; a viscosity (333 K, x1 = 0.2879) of 7.3 mPa·s.
